Key:
OR1A1 = target: T1, OR1A1 (Homo sapiens, UniProt Q9P1Q5); assay: GloSensor cAMP assay, HEK293T with RTP1S; format: cell-based
T1 sequence (Q9P1Q5 1-309): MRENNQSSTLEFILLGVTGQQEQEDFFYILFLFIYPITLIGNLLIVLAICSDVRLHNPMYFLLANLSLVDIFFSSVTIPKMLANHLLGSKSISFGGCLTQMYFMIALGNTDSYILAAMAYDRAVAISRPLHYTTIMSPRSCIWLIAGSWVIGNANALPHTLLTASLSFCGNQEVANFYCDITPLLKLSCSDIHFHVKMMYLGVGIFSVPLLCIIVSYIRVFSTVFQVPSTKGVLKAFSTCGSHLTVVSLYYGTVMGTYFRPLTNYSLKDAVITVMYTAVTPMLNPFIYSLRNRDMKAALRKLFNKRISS

OR51E1 = target: T2, OR51E1 (Homo sapiens, UniProt Q8TCB6); assay: GloSensor cAMP assay, HEK293T; format: cell-based
T2 sequence (Q8TCB6 2-318 limits assumed): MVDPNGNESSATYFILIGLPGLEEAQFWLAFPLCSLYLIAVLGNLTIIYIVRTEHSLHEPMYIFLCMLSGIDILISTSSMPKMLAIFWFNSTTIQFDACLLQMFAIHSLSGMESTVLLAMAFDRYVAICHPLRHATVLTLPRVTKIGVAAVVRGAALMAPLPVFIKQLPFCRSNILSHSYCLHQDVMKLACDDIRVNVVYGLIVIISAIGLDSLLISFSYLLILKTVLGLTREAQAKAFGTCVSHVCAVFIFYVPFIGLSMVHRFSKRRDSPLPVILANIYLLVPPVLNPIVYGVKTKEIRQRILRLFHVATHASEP

## CC(C)[C@@H]1CC[C@@H](C)C[C@H]1O [L-menthol]
OR1A1
  EC50: 38.9 µM

## C=C(C)[C@@H]1CC=C(C)C(=O)C1 [R-carvone]
OR1A1
  EC50: 0.513 µM

## CCCCC(=O)O [pentanoate]
OR51E1
  EC50: 34.7 µM
